Measured values published in ChEMBL document CHEMBL4390641, “Design, synthesis and biological evaluation of amide-pyridine derivatives as novel dual-target (SE, CYP51) antifungal inhibitors” (2019).
Active and inactive are the calls of the source. No cut-off for these calls is given here.

Tests used:
[1] = test system: Aspergillus fumigatus; experiment: Antifungal activity against Aspergillus fumigatus KM8001 assessed as inhibition of microbial growth by NCCLS protocol based method; assay type: functional
[2] = test system: Pichia kudriavzevii; experiment: Antifungal activity against Candida krusei ATCC 6258 assessed as inhibition of microbial growth by NCCLS protocol based method; assay type: functional
[3] = test system: Nakaseomyces glabratus; experiment: Antifungal activity against Candida glabrata ATCC 0001 assessed as inhibition of microbial growth by NCCLS protocol based method; assay type: functional
[4] = test system: Candida tropicalis; experiment: Antifungal activity against Candida tropicalis ATCC 1369 assessed as inhibition of microbial growth by NCCLS protocol based method; assay type: functional
[5] = test system: Candida albicans; experiment: Antifungal activity against Candida albicans ATCC 10231 assessed as inhibition of microbial growth by NCCLS protocol based method; assay type: functional
[6] = test system: Candida albicans; experiment: Antifungal activity against Candida albicans assessed as inhibition of microbial growth at 25 to 250 nM/mL by polarizing microscopy; assay type: functional, organism-based
[7] = test system: Heme; experiment: Binding affinity to heme by UV-Visible spectroscopy
[8] = test system: Candida albicans; experiment: Inhibition of SE/CYP51 in Candida albicans ATCC SC5314 assessed as effect on sterol composition by measuring ergosterol level at 16 ug/ml incubated for 90 mins by HPLC analysis (reference value: 64.2%); parameters: scale not given: the % may be the effect or the level left
[9] = test system: Candida albicans; experiment: Inhibition of SE/CYP51 in Candida albicans ATCC SC5314 assessed as effect on sterol composition by measuring Lanosterol level at 16 ug/ml incubated for 90 mins by HPLC analysis (reference value: 10.99%); parameters: scale not given: the % may be the effect or the level left
[10] = test system: Candida albicans; experiment: Inhibition of SE/CYP51 in Candida albicans ATCC SC5314 assessed as effect on sterol composition by measuring Eburicol level at 16 ug/ml incubated for 90 mins by HPLC analysis (reference value: 8.3%); parameters: scale not given: the % may be the effect or the level left
[11] = test system: Candida albicans; experiment: Antifungal activity against fluconazole-resistant Candida albicans 100 assessed as inhibition of microbial growth by NCCLS protocol based method; assay type: functional
[12] = test system: Candida albicans; experiment: Antifungal activity against Candida albicans assessed as induction of microbial cell killing at 25 to 250 nM/mL by polarizing microscopy; assay type: functional, organism-based
[13] = test system: Candida albicans; experiment: Antifungal activity against Candida albicans assessed as reduction in cell volume at 25 to 250 nM/mL by polarizing microscopy; assay type: functional, organism-based
[14] = test system: Candida albicans; experiment: Antifungal activity against fluconazole-resistant Candida albicans 103 assessed as inhibition of microbial growth by NCCLS protocol based method; assay type: functional
[15] = test system: Candida albicans; experiment: Antifungal activity against Candida albicans assessed as reduction in cell division at 25 to 250 nM/mL by polarizing microscopy; assay type: functional, organism-based
[16] = test system: Candida albicans; experiment: Antifungal activity against Candida albicans assessed as inhibition of microbial growth at 2.5 nM/mL by polarizing microscopy; assay type: functional, organism-based
[17] = test system: Candida albicans; experiment: Antifungal activity against Candida albicans assessed as reduction in proportion of microbes at cell division phase at 25 to 250 nM/mL by polarizing microscopy; assay type: functional, organism-based
[18] = test system: Candida albicans; experiment: Antifungal activity against Candida albicans assessed as induction of cell fracture at 2.5 nM/mL by polarizing microscopy; assay type: functional, organism-based
[19] = test system: Candida albicans; experiment: Inhibition of SE/CYP51 in Candida albicans ATCC SC5314 assessed as effect on sterol composition by measuring Unidentified sterol level at 16 ug/ml incubated for 90 mins by HPLC analysis (reference value: 16.51%); parameters: scale not given: the % may be the effect or the level left
[20] = test system: Candida albicans; experiment: Inhibition of SE/CYP51 in Candida albicans ATCC SC5314 assessed as effect on sterol composition by measuring Squalene level at 16 ug/ml incubated for 90 mins by HPLC analysis; parameters: scale not given: the % may be the effect or the level left
[21] = test system: Heme; experiment: Binding affinity to heme by fluorescence spectrum analysis

SMILES	MIC [1] [µg/mL]	MIC [2] [µg/mL]	MIC [3] [µg/mL]	MIC [4] [µg/mL]	MIC [5] [µg/mL]	other results
CC(C)[C@H](NC(=O)c1ccc2ccccc2c1)C(=O)NCc1ccncc1	8	0.5	0.5	2	2	–
OC(Cn1cncn1)(Cn1cncn1)c1ccc(F)cc1F [FLUCONAZOLE]	> 16	0.5	1	2	0.5	growth inhibition (GI) [6]: Active; Activity [7]: Active; Activity [8]: 11.3%; Activity [9]: 49.2%; Activity [10]: 39.5%; MIC [11]: > 16 µg/mL; Activity [12]: Active; Activity [13]: Active; MIC [14]: > 16 µg/mL; Activity [15]: Active; growth inhibition (GI) [16]: inactive; Activity [17]: Active
O=C(N[C@H](C(=O)NCc1ccncc1)c1ccccc1)c1ccc2ccccc2c1	> 16	4	8	> 16	4	–
O=C(CNC(=O)c1ccc2ccccc2c1)NCc1cccnc1	> 16	2	4	0.5	1	–
O=C(CNC(=O)c1ccc2ccccc2n1)NCc1ccncc1	2	0.5	0.5	0.125	0.25	growth inhibition (GI) [6]: Active; MIC [11]: 2 µg/mL; Activity [12]: Active; Activity [13]: Active; MIC [14]: 1 µg/mL; Activity [15]: Active; Activity [18]: Active; growth inhibition (GI) [16]: Active; Activity [17]: Active
O=C(CNC(=O)c1ccc2ccccc2c1)NCc1ccncc1	2	1	0.25	0.5	0.25	–
O=C(N[C@H](C(=O)NCc1cccnc1)c1ccccc1)c1ccc2ccccc2n1	> 16	> 16	4	2	8	–
O=C(N[C@H](C(=O)NCc1ccncc1)c1ccccc1)c1ccc2ccccc2n1	> 16	4	> 16	> 16	2	–
CC(C)[C@H](NC(=O)c1ccc2ccccc2n1)C(=O)NCc1ccncc1	> 16	0.5	2	4	0.5	–
CC(C)[C@H](NC(=O)c1ccc2ccccc2c1)C(=O)NCc1cccnc1	> 16	4	2	2	8	–
O=C(N[C@H](C(=O)NCc1cccnc1)c1ccccc1)c1ccc2ccccc2c1	> 16	8	> 16	8	> 16	–
C[C@H](NC(=O)c1ccc2ccccc2c1)C(=O)NCc1cccnc1	4	0.5	1	2	0.5	–
O=C(CNC(=O)c1ccc2ccccc2n1)NCc1cccnc1	2	0.5	2	1	0.5	–
C[C@H](NC(=O)c1ccc2ccccc2n1)C(=O)NCc1cccnc1	8	2	0.25	0.5	1	–
CC(C)[C@H](NC(=O)c1ccc2ccccc2n1)C(=O)NCc1cccnc1	4	1	0.5	2	0.5	–
CN(C/C=C/C#CC(C)(C)C)Cc1cccc2ccccc12 [TERBINAFINE]	2	0.5	1	2	0.25	growth inhibition (GI) [6]: Active; Activity [8]: 10.6%; Activity [9]: 22.4%; Activity [10]: 21.9%; MIC [11]: 8 µg/mL; Activity [12]: Active; Activity [13]: Active; Activity [19]: 7.27%; Activity [20]: 37.8%; MIC [14]: 4 µg/mL; Activity [15]: Active; growth inhibition (GI) [16]: inactive; Activity [17]: Active
C[C@H](NC(=O)c1ccc2ccccc2c1)C(=O)NCc1ccncc1	2	0.5	1	0.25	0.25	–
C[C@H](NC(=O)c1ccc2ccccc2n1)C(=O)NCc1ccncc1	1	0.25	0.125	0.25	0.125	growth inhibition (GI) [6]: Active; Activity [7]: Active; Activity [8]: 9.02%; Activity [9]: 50.1%; Activity [10]: 27.4%; MIC [11]: 0.5 µg/mL; Activity [12]: Active; Activity [13]: Active; Activity [20]: 13.4%; MIC [14]: 2 µg/mL; Activity [15]: Active; Activity [18]: Active; Activity [21]: Dose-dependent effect; growth inhibition (GI) [16]: Active; Activity [17]: Active
